Experimental data published in patent US11231410B2, “Method for identifying a compound useful in mitigating and/or the treatment of a disease associated with abnormal astrocytic function” (Celica BIOMEDICAL, priority 2015, dated 2022).
Like-named read-outs stand apart in the source and are kept apart here.

Key:
[1] = biological target: T1, GPR81 (Rattus norvegicus, UniProt B9UM24); conditions: from European Patent Application No. 13 173 446, cited from earlier work
T1 construct: endogenous in cells; host or cells: cultured primary rat astrocytes transfected only with the cAMP sensors Epac1-camps or AKAR2
T1 sequence (B9UM24 1-351): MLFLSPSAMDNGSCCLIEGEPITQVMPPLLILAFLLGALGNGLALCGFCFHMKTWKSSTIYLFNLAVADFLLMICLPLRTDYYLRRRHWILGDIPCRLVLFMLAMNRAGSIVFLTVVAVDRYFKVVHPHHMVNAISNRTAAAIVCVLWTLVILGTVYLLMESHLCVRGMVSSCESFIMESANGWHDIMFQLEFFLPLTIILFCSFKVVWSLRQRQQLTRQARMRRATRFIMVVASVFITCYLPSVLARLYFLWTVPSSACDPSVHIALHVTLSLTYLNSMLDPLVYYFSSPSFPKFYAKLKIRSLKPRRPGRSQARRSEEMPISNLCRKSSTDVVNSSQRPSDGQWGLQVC

[2] = biological target: T1, GPR81; assay: FRET nano-sensor (Epac1-camps / AKAR2) measurement of cytosolic cAMP in single cultured astrocytes, GPR81 ligands; format: cell-based; conditions: for n decrease (cells with cAMP decrease): number of astrocytes responding with cAMP decrease; for n increase (cells with cAMP increase): number of astrocytes responding with cAMP increase; for n unresponsive (cells): number of unresponsive astrocytes; for % decrease (cells with cAMP decrease) / % increase (cells with cAMP increase) / % unresponsive (cells): share of all astrocytes tested; for responsiveness of cells (cAMP): compared with the high affinity molecule 3cl5hi
Source text: (§1) As described in the previous European Patent Application No. 13 173 446, the cAMP level may, be determined by fluorescence nano-sensors in the astrocyte. In particular, the cAMP level may be determined by expressing the plasmid for FRET construct Epac1-camps or AKAR2. FRET signal is reported as the ratio of YFP to CFP fluorescence signal. The change in FRET signals reflects change in [cAMP]i. The inventions comprises of using MD and cAMP measurements.
(§2) As described in the previous European Patent Application No. 13 173 446, the cAMP level may, for instance, be determined by fluorescence nano-sensors in the astrocyte. In particular, the cAMP level may be determined by expressing the plasmid for FRET construct Epac1-camps or AKAR2. FRET construct are examined with immersion objective for fluorescent light and confocal microscope or other fluorescent microscope. Cells were excited at 458 nm or other suitable excitation wavelength of light and images are acquired every time interval. Emission spectra are collected from spectral detector or other suitable wavelength of light. Two-channel (CFP and YFP) images are generated from light detector. YFP and CFP fluorescence intensities are quantified within a region of interest selected for individual cell expressing Epac1-camps or AKAR2 using software. FRET signal is reported as the ratio of YFP to CFP fluorescence signal after subtracting the background fluorescence from both YFP and CFP signals. The change in FRET signals reflects change in [cAMP]i.
(§3) Cultured astrocytes, e.g. isolated as previously described by Schwartz & Wilson (Glia. 1992; 5(1):75-80) or any other cell type isolated from animal tissues or clonal cell lines derived from human or animal sources are seeded onto coverslips and maintained in an adequate cell cultured medium. All chemicals were from Sigma Aldrich (St. Louis, Mo., USA) unless otherwise noted.
(§4) Astrocytes expressing Epac1-camps or AKAR2 FRET construct were examined with a Plan NeoFluoar 40×/1.3 Oil DIC immersion objective (Carl Zeiss, Jena, Germany) and 2-fold zoom factor using Zeiss LSM510 META confocal microscope (Carl Zeiss, Jena, Germany). Cells were excited at 458 nm and images (512×512) were acquired every 3.5 s or 7 s using Lambda stack acquisition. Emission spectra were collected from META detector in eight channels (lambda stack) ranging from 470 nm to 545 nm, each with a 10.7-nm width. Two-channel (CFP and YFP) images were generated from lambda stacks by analytical software “Extract channels”. Channels with emission spectra 470- and 481-nm and emission spectra 513-, 524-, and 534-nm were extracted to CFP channel and YFP channel, respectively. YFP and CFP fluorescence intensities were quantified within a region of interest selected for individual cell expressing Epac1-camps or AKAR2 using LSM 510 META software. In the graphs, FRET signal is reported as the ratio of YFP to CFP fluorescence signal after subtracting the background fluorescence from both YFP and CFP signals using Sigma Plot.
(§5) The values of FRET signals were normalized (set to 1.0) at the onset of the experiments and averaged. The decrease in FRET signals in Epac1-camps experiments reflects an increase in [cAMP]i and the increase in FRET signals in AKAR2 experiments reflects increase in [cAMP]i.
(§6) Initially, astrocytes were kept in standard extracellular solution (10 mM Hepes/NaOH, pH 7.2, 10 mM D-glucose, 131.8 mM NaCl, 1.8 mM CaCl2, 2 mM MgCl2, and 5 mM KCl) and then treated with various reagents following a 100 s baseline.

[3] = biological target: human HCAR1 (GPR81) (Homo sapiens, UniProt Q9BXC0); conditions: cited from earlier work; for EC50 (in words): Dvorak et al. 2012, qualitative statement; for agonist activity at GPR81: Dvorak et al. 2012; for EC50: receptor activation, value from Dvorak et al. 2012
Sequence of human HCAR1 (GPR81) (Q9BXC0 whole entry): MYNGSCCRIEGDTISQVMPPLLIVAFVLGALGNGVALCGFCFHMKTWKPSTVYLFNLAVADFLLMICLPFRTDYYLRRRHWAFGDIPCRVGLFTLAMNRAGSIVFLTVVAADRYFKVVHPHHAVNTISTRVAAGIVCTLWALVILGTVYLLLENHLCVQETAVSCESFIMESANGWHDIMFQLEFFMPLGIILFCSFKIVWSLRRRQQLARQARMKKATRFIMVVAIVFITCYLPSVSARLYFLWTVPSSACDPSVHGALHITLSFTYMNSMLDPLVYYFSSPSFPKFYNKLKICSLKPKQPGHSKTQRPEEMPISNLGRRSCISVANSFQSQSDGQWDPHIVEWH

[4] = test system: Adrener.; assay: FRET nano-sensor measurement of cytosolic cAMP in single cultured astrocytes, adrenergic stimulus; format: cell-based, rat
Source text: as §1, §2, §3, §4, §5, §6

[5] = biological target: human HCA1 (Homo sapiens, UniProt Q9BXC0); conditions: compared versus HCA2, Liu et al. 2012; cited from earlier work
Sequence of human HCA1 (Q9BXC0 whole entry): as above

Row | Molecule | n decrease (cells with cAMP decrease) [2] | n increase (cells with cAMP increase) [2] | n unresponsive (cells) [2] | % decrease (cells with cAMP decrease) [2] | % increase (cells with cAMP increase) [2] | % unresponsive (cells) [2] [%] | EC50 (in words) [3] | also measured
1 | O=C(O)c1cc(O)cc(Cl)c1 [Ligand 3cl5hi, 3-chloro-5-hydroxybenzoic acid, reference compound] | 0 (0%) | 21 | 14 | 0 (0%) | (60%) | 40 | relatively low EC50 | intracellular cAMP levels in astrocytes (FRET ratio YFP/CFP) ([1]; 500 μM 3-Cl-5-HBA, AKAR2 sensor, FIG. 9d): increases intracellular cAMP levels; agonist activity at GPR81 [3]: agonists
2 | O=C(O)c1cc(O)cc(F)c1 [Ligand 3f5hi, 3-fluoro-5-hydroxybenzoic acid, reference compound] | – | – | – | – | – | – | relatively low EC50 | agonist activity at GPR81 [3]: agonists
3 | NC[C@H](O)c1ccc(O)c(O)c1 [Norepinephrine] | – | – | – | – | – | – | – | n decrease (cells with cAMP decrease) ([4]; number of astrocytes responding with cAMP decrease): 0 (0%); n increase (cells with cAMP increase) ([4]; number of astrocytes responding with cAMP increase): 11; n unresponsive (cells) ([4]; number of unresponsive astrocytes): 3; % decrease (cells with cAMP decrease) ([4]; share of all astrocytes tested): 0 (0%); % increase (cells with cAMP increase) ([4]; share of all astrocytes tested): (79%); % unresponsive (cells) ([4]; share of all astrocytes tested): 21%
4 | CC(C)(C)c1cc(O)cc(C(=O)O)c1 [but, 3-tertbutyl-5-hydroxybenzoic acid] | 4 | 29 | 6 | 10% | (75%) | 15 | relatively high EC50 | responsiveness of cells (cAMP) [2]: responded much better; EC50 [3]: > 1 mM
5 | COc1cc(O)cc(C(=O)O)c1 [metoxi, 3-methoxy-5-hydroxybenzoic acid] | 3 | 34 | 15 | 6% | (65%) | 29 | relatively high EC50 | responsiveness of cells (cAMP) [2]: responded much better; EC50 [3]: > 1 mM
6 | O=C(O)c1cc(O)cc(O)c1 [oh, 3,5-dihydroxybenzoic acid] | – | – | – | – | – | – | – | selectivity for human HCA1 [5]: selective agonist
7 | O=C(O)c1cc(O)cc(-c2ccccc2)c1 [ph, 3-phenyl-5-hydroxybenzoic acid] | – | – | – | – | – | – | relatively high EC50 | –
8 | Lactic acid/lactate [lakta] | – | – | – | – | – | – | – | intracellular cAMP levels in astrocytes (FRET ratio YFP/CFP) ([1]; 20 mM lactate, Epac1-camps and AKAR2 sensors, FIG. 9b-c): increases intracellular cAMP levels
